Measurements as given in patent US6127379A, “Benzopyran, benzothiopyran and benzofuran derivatives as 5-HT4 antagonists” (SmithKline Beecham p.l.c., priority 1994, dated 2000).
Structures can show the parent of a compound that is named as a salt.

Tests used:
5-HT4 receptor [1] = molecular target: 5-HT4 receptor (Sus scrofa, UniProt Q6Q253); experiment: Piglet atria spontaneous beating screen; format: cell-based; details: piglet spontaneously beating atria
Experimental: (§1) 5-HT4 RECEPTOR ANTAGONIST ACTIVITY
Compounds were tested in the piglet spontaneous beating screen (Naunyn-Schmiedeberg's Arch. Pharmacol 342, 619-622). pKB (-log10 KB) value for the compound of Examples 3 and 7 were 9.8 and 7.7 respectively.

5-HT4 receptor [2] = molecular target: T1, 5-HT4 receptor (Cavia porcellus, UniProt O70528); experiment: Guinea pig colon longitudinal muscle-myenteric plexus, 5-HT-evoked contraction; format: cell-based; details: guinea pig distal colon
T1 construct: guinea pig distal colon longitudinal muscle-myenteric plexus, 5-HT-evoked contraction
Experimental: as §1
Male guinea-pigs, weighing 250-400g are used. Longitudinal muscle-myentericplexus preparations, approximately 3 cm long, are obtained from the distal colon region. These are suspended under a 0.5 g load in isolated tissue baths containing Krebs solution bubbled with 5%, CO2 in O2 and maintained at 37° C. In all experiments, the Krebs solution also contains methiothepin 10^-7 M and granisetron 10^-6 M to block effects at 5-HT1, 5-HT2 and 5-HT3 receptors.
After construction of a simple concentration-response curve with 5-HT, using 30 s contact times and a 15 min dosing cycle, a concentration of 5-HT is selected so as to obtain a contraction of the muscle approximately 40-70% maximum(10^-9 M approx). The tissue is then alternately dosed every 15 min with this concentration of 5-HT and then with an approximately equi-effective concentration of the nicotine receptor stimulant, dimethylphenylpiperazinium (DMPP). After obtaining consistent responses to both 5-HT and DMPP, increasing concentrations of a putative 5-HT4 receptor antagonist are then added to the bathing solution. The effects of this compound are then determined as a percentage reduction of the contractions evoked by 5-HT or by DMPP. […] A compound which reduces the response to 5-HT but not to DMPP is believed to act as a 5-HT4 receptor antagonist.

5-HT4 receptor [3] = experiment: 5-HT-induced motility in dog gastric pouch; format: in vivo; details: dose of 10 μg kg^-1
Experimental: as §1
4) 5-HT-induced motility in dog gastric pouch
Compounds are tested in the in vivo method described in "Stimulation of canine motility by BRL 24924, a new gastric prokinetic agent", Bermudez et al, J. Gastrointestinal Motility, 2(4), 281-286.

T1 sequence (O70528 whole entry): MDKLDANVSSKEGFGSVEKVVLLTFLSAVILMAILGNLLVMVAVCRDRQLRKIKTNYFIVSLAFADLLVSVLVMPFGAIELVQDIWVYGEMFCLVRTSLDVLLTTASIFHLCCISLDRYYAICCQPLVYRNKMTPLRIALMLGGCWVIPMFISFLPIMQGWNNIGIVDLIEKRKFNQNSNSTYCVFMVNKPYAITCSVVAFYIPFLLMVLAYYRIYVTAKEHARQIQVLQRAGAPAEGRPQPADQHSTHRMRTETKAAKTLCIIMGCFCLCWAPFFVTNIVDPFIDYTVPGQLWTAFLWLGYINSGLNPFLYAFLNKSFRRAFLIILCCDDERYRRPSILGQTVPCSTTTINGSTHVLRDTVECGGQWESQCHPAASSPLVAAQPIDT
Sequence of 5-HT4 receptor (Sus scrofa, UniProt Q6Q253) (Q6Q253 1-402): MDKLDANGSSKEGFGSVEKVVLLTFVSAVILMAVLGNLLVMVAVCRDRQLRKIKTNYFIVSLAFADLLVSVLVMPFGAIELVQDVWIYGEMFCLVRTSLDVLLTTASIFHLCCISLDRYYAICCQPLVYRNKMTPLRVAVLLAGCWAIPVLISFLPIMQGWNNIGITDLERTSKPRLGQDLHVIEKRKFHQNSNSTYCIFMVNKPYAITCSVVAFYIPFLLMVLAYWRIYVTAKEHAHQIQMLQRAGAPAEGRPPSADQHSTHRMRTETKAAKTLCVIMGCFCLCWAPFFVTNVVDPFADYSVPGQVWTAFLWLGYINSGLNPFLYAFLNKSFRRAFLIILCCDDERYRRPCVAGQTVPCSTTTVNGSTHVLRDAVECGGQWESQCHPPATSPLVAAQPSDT

Row | pKB (-log10 KB) (5-HT4 receptor [1]) | 5-HT4 receptor antagonist activity (in words) (5-HT4 receptor [2]) | SMILES | inhibition of 5-HT-induced motility (5-HT4 receptor [3])
1 | 7.7 | – | O=C(OCCN1CCCCC1)c1cc(Cl)cc2c1OCCC2 [Example E7, (1-Piperidyl)ethyl-6-chloro-[2H]-3,4-dihydro-1-benzopyran-8-carboxylate hydrochloride] | –
2 | – | particularly good activity | CCCCN1CCC(CNC(=O)c2cc(Cl)cc3c2OCCC3)CC1 [Example E8, (1-Butyl-4-piperidyl)methyl-6-chloro-[2H]-3,4-dihydro-1-benzopyran-8-carboxamide hydrochloride] | –
3 | – | particularly good activity | CCCCN1CCC(CNC(=O)c2cc(Cl)c(N)c3c2OCCC3)CC1 [Example E12, 5-Amino-(1-butyl-4-piperidyl)methyl-6-chloro-[2H]-3,4-dihydro-1-benzopyran-8-carboxamide] | –
4 | 9.8 | particularly good activity | CCCCN1CCC(COC(=O)c2cc(Cl)cc3c2OCCC3)CC1 [Example E3, (1-Butyl-4-piperidyl)methyl-6-chloro-[2H]-3,4-dihydro-1-benzopyran-8-carboxylate] | showed inhibition
